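Each compound was tested at five concentrations against cells in 96-well plates for 48 hours. Here, GI50 denotes the concentration required for 50% inhibition of growth. Definition used: TGI = concentration required for complete inhibition of growth.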
Assays:
Test in all cases: NCI-60 cell line screen, 48 h
UO-31 renal = system: UO-31 renal
SF-268 CNS = system: SF-268 CNS
HT29 colon = system: HT29 colon
PC-3 prostate = system: PC-3 prostate
MCF7 breast = system: MCF7 breast
SF-295 CNS = system: SF-295 CNS
HCT-116 colon = system: HCT-116 colon
KM12 colon = system: KM12 colon
HCC-2998 colon = system: HCC-2998 colon
NCI-H226 lung = system: NCI-H226 lung

| SMILES | GI50 (UO-31 renal) [µM] | TGI (UO-31 renal) [µM] | GI50 (SF-268 CNS) [µM] | TGI (SF-268 CNS) [µM] | GI50 (HT29 colon) [µM] | TGI (HT29 colon) [µM] | GI50 (PC-3 prostate) [µM] | TGI (PC-3 prostate) [µM] | GI50 (MCF7 breast) [µM] | TGI (MCF7 breast) [µM] | GI50 (SF-295 CNS) [µM] | TGI (SF-295 CNS) [µM] | GI50 (HCT-116 colon) [µM] | TGI (HCT-116 colon) [µM] | TGI (KM12 colon) [µM] | TGI (HCC-2998 colon) [µM] | TGI (NCI-H226 lung) [µM] | GI50 (KM12 colon) [µM] | GI50 (HCC-2998 colon) [µM] | GI50 (NCI-H226 lung) [µM] |
| --- | --- | --- | --- | --- | --- | --- | --- | --- | --- | --- | --- | --- | --- | --- | --- | --- | --- | --- | --- | --- |
| CCCCCCCCN(CCCCCCCC)C(=N)c1ccnc2ccccc12 | 0.953 | 2.29 | 1.31 | 2.89 | 0.292 | 1.06 | 1.16 | 2.52 | 0.261 | 1.21 | 1.52 | 2.92 | 1.24 | 2.55 |  |  |  |  |  |  |
| Nn1c(CCCl)nc2c(Br)cc(Br)cc2c1=O |  | > 75.6 |  | > 100 |  | > 100 |  |  |  |  |  | > 100 |  | 53 | 38.1 | > 100 | > 75.1 |  |  |  |
| CC1(C)CCC(=O)c2c(O)ccc(O)c21 |  | > 100 |  | > 100 |  | > 100 |  |  |  |  |  | > 100 |  | > 100 | > 100 | > 100 | > 100 |  |  |  |
| COC(=O)C1=CC(O)CCC1c1ccc(OC)cc1 (stereo not given) |  | > 100 |  | > 100 |  | > 100 |  |  |  |  |  | > 100 |  | > 100 | > 100 | > 100 | > 100 |  |  |  |
| CCCCCCCC[N+](C)(C)Cc1ccc(C[N+](C)(C)CCCCCCCC)cc1 |  | > 100 |  | > 100 |  | > 100 |  |  |  |  |  | > 100 |  | > 100 | > 100 | > 100 | > 100 |  |  |  |
| CN1CCC23c4c5ccc(O)c4OC2C(=NN=C2CCC4(O)C6Cc7ccc(O)c8c7C4(CCN6C)C2O8)CCC3(O)C1C5 (stereo not given) |  | > 100 |  | > 100 |  | > 100 |  |  |  |  |  | > 100 |  |  | > 100 | > 100 | > 100 |  |  |  |
| CN1C(=O)n2c(nc3ccccc32)C(N=[N+]=[N-])(N=[N+]=[N-])C1=O (stereo not given) |  | > 100 |  | > 100 |  | > 100 |  |  |  |  |  | > 100 |  | > 100 | > 100 | > 100 | > 100 |  |  |  |
| COc1cc(C(=O)C/C(CCC(=O)Nc2ccccc2[N+](=O)[O-])=N\NC(=O)C(N)=O)ccc1O |  | > 100 |  | > 100 |  | > 100 |  |  |  |  |  | > 100 |  | > 100 | > 100 |  | > 100 |  |  |  |
| CCCCCCCCCOC(=S)NC |  | 23.2 |  | 38.5 |  | 42.2 |  |  |  |  |  | 67.5 |  |  | 57 | 35.3 |  |  |  |  |
| CCOC(=O)/C(=C/c1ccc(OC)c(OC)c1)C(=O)c1ccccc1 |  | 27.5 |  | 36.7 |  | 30.8 |  |  |  |  |  | 46.9 |  |  | 31.5 | 32.5 |  |  |  |  |
| Cc1ccc(-c2csc(N(C(=O)N3CCN(c4cc5c(cc4F)c(=O)c(C(=O)O)cn5C4CC4)CC3)c3ccccc3)n2)cc1 |  |  | 0.432 | > 100 |  |  |  |  |  |  | 0.303 | 1.86 | 0.333 | > 100 | > 100 | > 100 | > 100 | 0.371 | 0.537 | 0.338 |
| O=c1c(O)c(-c2ccc(O)c(O)c2)oc2cc(O)ccc12 |  | 23.4 |  | > 74.1 |  | 98.8 |  |  |  |  |  | 54.4 |  | 26.2 | 31 | 41.9 | 39.5 |  |  |  |
| Cc1cc(N(CCC#N)CCC#N)ccc1/C=C1/CN(N2C(=O)/C(=C/c3ccc(N(CCC#N)CCC#N)cc3C)N=C2c2ccccc2)C(c2ccccc2)=N1 |  | > 100 |  | > 100 |  | > 100 |  |  |  |  |  | > 100 |  | > 100 | > 100 | > 100 | > 100 |  |  |  |
| CCOC(=O)C1Cc2c(ccc(OC)c2OC)C(=O)C1N (stereo not given) |  | > 100 |  |  |  | > 100 |  |  |  |  |  | > 100 |  | > 100 | > 100 | > 100 | > 100 |  |  |  |
| COc1ccccc1/C=C/C(=O)c1sc(-c2cccnc2)nc1C |  | > 100 |  | > 100 |  | > 100 |  |  |  |  |  | > 100 |  |  | > 100 | > 100 | > 100 |  |  |  |
| CCOC(=O)C12CCCC1(O)N(NC(=O)c1cccc(Cl)c1)C(C)=C2C(=O)OC (stereo not given) |  | > 100 |  | > 100 |  | > 100 |  |  |  |  |  | > 100 |  | > 100 | > 100 | > 100 | > 100 |  |  |  |
| CCCC(OCC)(OCC)OCC |  | > 100 |  | > 100 |  | > 100 |  |  |  |  |  | > 100 |  | > 100 | > 100 | > 100 | > 100 |  |  |  |
| O=C(O)/C(Cl)=C(\Cl)Nc1cccc(C(F)(F)F)c1 |  | > 100 |  | > 100 |  | > 100 |  |  |  |  |  | > 100 |  |  |  | > 100 |  |  |  |  |
| CSc1nc(NC2OCC(OC(C)=O)C(OC(C)=O)C2OC(C)=O)c(N=CC=Nc2c(NC3OCC(OC(C)=O)C(OC(C)=O)C3OC(C)=O)nc(SC)n(C)c2=O)c(=O)n1C (stereo not given) |  | > 100 |  | > 100 |  | > 100 |  |  |  |  |  | > 100 |  | > 100 | > 100 | > 100 |  |  |  |  |

Reference: PubChem BioAssay (NCI)
